According to patent US20240368209A1, “GEMCITABINE ANTICANCER DERIVATIVE AND ANTICANCER PHARMACEUTICAL USE” (ASCENTAWITS PHARMACEUTICALS, LTD., priority 2021, published 2024):
Where two headings read alike, the source gives them in different places.

What was measured:
[1] = Metabolic stability in rat liver microsomes; type: in vitro ADME
Protocol: (§1) Main solutions were prepared according to Table 9 below:
(§2) (II) Two Separate Experiments were Performed • a) With cofactor (NADPH): 25 μL of 10 mM NADPH was added to the culture broth. The final concentration of liver microsomes was 0.5 mg/mL, and the final concentration of NADPH was 1 mM. • b) Without cofactor (NADPH): 25 μL of 100 mM phosphate buffer was added. The final concentration of liver microsomes was 0.5 mg/mL. The mixture was preheated at 37° C. for 10 minutes. (III) 25 μL of […] control compound or test compound solution was added to start the reaction. […] The final concentrations of the test compound and control compound were both 1 μM. The culture broth was cultured in water at 37° C. (IV) Aliquots of 30 μL were collected from the reaction solution at 0.5, 5, 15, 30, and 60 minutes, respectively. 5 volumes of cold acetonitrile and IS (internal standard, containing 100 nM of alprazolam, 200 nM of caffeine, and 100 nM of tolylbutanamide) were added to stop the reaction. […] 100 μL of supernatant was taken and mixed with 100 μL of ultrapure water, equally divided and analyzed with LC-MS/MS.
(§3) All calculations were conducted using Microsoft Excel. The peak area was determined from the extracted ion chromatogram.
(§4) [formula] [formula] [formula] • wherein, QH is the hepatic blood flow (mL/min/kg) in Table 10, and fub is the fraction of drug unbound in plasma, and assumed as 1.

[2] = system: H460 non-small cell lung cancer human tumor cell line; assay: In vitro human tumor cell line cytotoxicity (proliferation) assay on H460, CTG, with or without AST-3021; type: cell-based; conditions: for IC50: Homo sapiens
Protocol: In vitro human tumor cell line cytotoxicity assay was used.
In vitro proliferation data on the H460 non-small cell lung cancer human tumor cell line (cell line which highly expresses AKR1C3) is reported below in the compound table.
IC50 values were obtained with the following steps:
Specifically, exponentially growing cells were seeded at a density of 2×10^3 cells/100 μL/well in a 96-well plate and incubated at 37° C. in 5% CO2, 95% air and 100% relative humidity for 24 hours. The test compound was administered alone: 24 hours after cell plating, the compound acted alone, 99 μL of growth medium per well was added, and 1 μL of the compound prepared at 200× was added, and the plate was shaken gently to ensure even mixing, then placed into an incubator of 37° C., 5% CO2. After further cultivation for 72 hours, the number of live cells was detected using CTG. The CTG detection method was as follows: the cell plate to be tested was placed at room temperature to equilibrate for 30 minutes, and 100 μL of medium per well was discarded. 25 μL of CTG reagent (CellTiter-Glo® kit) per well was added, and the plate was placed in a high-speed shaker to oscillate for 2 minutes, and placed at room temperature in the dark for 30 minutes. The chemiluminescence signal value was read using a multimode microplate reader, with a read time of 1000 ms.
Similarly, in order to further verify that the compounds were activated by human AKR1C3 (aldosterone reductase family 1 member C3), the effect of some of the compounds on the proliferation of H460 cancer cells was tested with pretreatment with a specific AKR1C3 enzyme inhibitor AST-3021 (3 μM). The detailed experimental procedure was as follows: 24 hours after cell plating, 98 μL of growth medium per well was added, and 1 μL of 200×compound AST-3021 was added to each well, and the plate was shaken gently to ensure even mixing, and then placed into an incubator; after 2 hours, 1 μL of the test compound prepared at 200× was added, and the plate was shaken gently to ensure even mixing and then laced into an incubator of 37° C., 5% CO2. The inhibitor used was compound 36, i.e.
in Flanagan et al., Bioorganic and Medicinal Chemistry (2014), page 962-977, and is referred to as AST-3021 in this invention. The values measured in this case are values corresponding to +AST-3021 IC50 (nM) in Table 1.
The value corresponding to +AST-3021 IC50 (nM) divided by the value corresponding to IC50 (nM) is the specific activation ratio. The relative magnitude of the specific activation ratio can be used to evaluate whether this compound is a cytotoxic compound activated by human AKR1C3 (aldosterone reductase family 1 member C3): when the specific activation ratio is less than 1, it is considered that the compound is not activated by human AKR1C3 (aldosterone reductase family 1 member C3); when the specific activation ratio is greater than 1, it is considered that the compound is activated by human AKR1C3 (aldosterone reductase family 1 member C3), and the higher the value, the higher the activation degree and the selectivity of AKR1C3.

[3] = Plasma stability in monkey plasma; type: in vitro ADME
Protocol: The final concentration of organic solvents was 0.5%. The test was conducted in duplicate. • C.
Samples were analyzed with LC-MS/MS. All calculations were conducted using Microsoft Excel.

[4] = Metabolic stability in human liver microsomes; type: in vitro ADME
Protocol: as §1, §2, §3, §4

[5] = read-out: In vitro half-life t1/2
[6] = read-out: In vitro intrinsic clearance CLint

Question: For CC(C)NP(=O)(OCc1ccc([N+](=O)[O-])c(Oc2ccc(-c3ccc(F)cc3)c(F)c2)c1)OCC1OC(C2N=CC(N)=NC2=O)C(F)(F)C1O (stereo not drawn) [Compound H11], which “Hepatic Extraction Ratio (ER)” value [1] is on record?
Answer: 0.71

Question: And the “Predicted Hepatic CLH” value [1]?
Answer: 48.43 mL/min/kg

Question: And the “clearance and stability in liver microsomes (in words)” value [1]?
Answer: medium clearances and certain stability

Question: And the “Remaining percentage (%)” value ([1]; NADPH added, 0.5 minutes, 1 μM)?
Answer: 100.00%

Question: And the “Remaining percentage (%)” value ([1]; NADPH added, 5 minutes)?
Answer: 85.67%

Question: And the “Remaining percentage (%)” value ([1]; NADPH added, 15 minutes)?
Answer: 56.17%

Question: What about the “Remaining percentage (%)” value ([1]; NADPH added, 30 minutes) of the same compound?
Answer: 29.55%

Question: And the “Remaining percentage (%)” value ([1]; NADPH added, 60 minutes)?
Answer: 13.20%

Question: What about the “Remaining percentage (%)” value ([1]; NADPH not added, 0.5 minutes) of the same compound?
Answer: 100.00%

Question: And the “Remaining percentage (%)” value ([1]; NADPH not added, 60 minutes)?
Answer: 103.20%

Question: And the half-life at 1 μM [1, 5]?
Answer: 20.1 min

Question: And the microsomal CLint at 1 μM [1, 6]?
Answer: 69 µL/min/mg

Question: And the CLint scaled at 1 μM ([1]; read-out: Scale-up CLint)?
Answer: 168 mL/min/kg

Question: And the “specific activation ratio (+AST-3021 IC50/IC50)” value [2]?
Answer: 92.8

Question: What about the IC50 ([2]; NCI-H460, compound alone, 72 hours, read-out: IC50) of the same compound?
Answer: 15.9 nM

Question: And the IC50 ([2]; NCI-H460, pretreatment with AKR1C3 inhibitor AST-3021 (3 μM), read-out: +AST-3021 IC50)?
Answer: 1480 nM

Question: And the “t1/2 (min)” value [3]?
Answer: ∞

Question: And the “Remaining percentage (%)” value ([3]; 0 min, 5 μM, 37° C.)?
Answer: 100.00%

Question: And the “plasma stability (in words)” value ([3]; 37° C., at least 2 hours)?
Answer: stable and has no significant metabolism

Question: And the “Remaining percentage (%)” value ([3]; 15 min)?
Answer: 100.61%

Question: And the “Remaining percentage (%)” value ([3]; 30 min)?
Answer: 92.99%

Question: What about the “Remaining percentage (%)” value ([3]; 60 min) of the same compound?
Answer: 103.66%

Question: And the “Remaining percentage (%)” value ([3]; 120 min)?
Answer: 98.48%

Question: What about the “Hepatic Extraction Ratio (ER)” value [4] of the same compound?
Answer: 0.69

Question: What about the “Predicted Hepatic CLH” value [4] of the same compound?
Answer: 14.41 mL/min/kg

Question: And the “clearance and stability in liver microsomes (in words)” value [4]?
Answer: medium clearances and certain stability

Question: What about the “Remaining percentage (%)” value ([4]; NADPH added, 0.5 minutes, 1 μM) of the same compound?
Answer: 100.00%

Question: What about the “Remaining percentage (%)” value ([4]; NADPH added, 5 minutes) of the same compound?
Answer: 86.00%

Question: What about the “Remaining percentage (%)” value ([4]; NADPH added, 15 minutes) of the same compound?
Answer: 63.82%

Question: What about the “Remaining percentage (%)” value ([4]; NADPH added, 30 minutes) of the same compound?
Answer: 43.87%

Question: What about the “Remaining percentage (%)” value ([4]; NADPH added, 60 minutes) of the same compound?
Answer: 26.14%

Question: What about the “Remaining percentage (%)” value ([4]; NADPH not added, 0.5 minutes) of the same compound?
Answer: 100.00%

Question: What about the “Remaining percentage (%)” value ([4]; NADPH not added, 60 minutes) of the same compound?
Answer: 100.86%

Question: And the half-life at 1 μM [4, 5]?
Answer: 31 min

Question: And the microsomal CLint at 1 μM [4, 6]?
Answer: 44.7 µL/min/mg

Question: What about the CLint scaled at 1 μM ([4]; read-out: Scale-up CLint) of the same compound?
Answer: 46 mL/min/kg
